Activity calls are given as the source filed them. No cut-off for these calls is given here.
Tests used:
[1] = test system: Blood; conditions: mouse, in vivo, iv, 2 min
Description: Biodistribution in ICR mouse blood at 1.1 MBq, iv after 2 mins postinjection

[2] = test system: Brain; conditions: mouse, in vivo, iv, 1 h
Description: Biodistribution in remaining brain of ICR mouse at 1.1 MBq, iv after 60 mins postinjection

[3] = test system: Blood; conditions: mouse, in vivo, iv, 0.5 h
Description: Biodistribution in ICR mouse blood at 1.1 MBq, iv after 30 mins postinjection

[4] = test system: Cortex; conditions: mouse, in vivo, iv, 2 min
Description: Biodistribution in ICR mouse cortex at 1.1 MBq, iv after 2 mins postinjection

[5] = test system: Cerebellum; conditions: mouse, in vivo, iv, 0.5 h
Description: Biodistribution in ICR mouse cerebellum at 1.1 MBq, iv after 30 mins postinjection

[6] = test system: Cortex; conditions: mouse, in vivo, iv, 1 h
Description: Biodistribution in ICR mouse cortex at 1.1 MBq, iv after 60 mins postinjection

[7] = in vitro; conditions: human, serum
Description: Metabolic stability in human serum assessed as compound remaining at 3.7 MBq after 120 mins by radio-TLC

[8] = test system: Cortex; conditions: mouse, in vivo, iv, 0.5 h
Description: Biodistribution in ICR mouse cortex at 1.1 MBq, iv after 30 mins postinjection

[9] = test system: Cerebellum; conditions: mouse, in vivo, iv, 2 min
Description: Biodistribution in ICR mouse cerebellum at 1.1 MBq, iv after 2 mins postinjection

[10] = test system: Cerebellum; conditions: mouse, in vivo, iv, 1 h
Description: Biodistribution in ICR mouse cerebellum at 1.1 MBq, iv after 60 mins postinjection

[11] = test system: Brain; conditions: mouse, in vivo, iv, 0.5 h
Description: Biodistribution in remaining brain of ICR mouse at 1.1 MBq, iv after 30 mins postinjection

[12] = test system: Brain; conditions: mouse, in vivo, iv, 2 min
Description: Biodistribution in remaining brain of ICR mouse at 1.1 MBq, iv after 2 mins postinjection

[13] = test system: Blood; conditions: mouse, in vivo, iv, 1 h
Description: Biodistribution in ICR mouse blood at 1.1 MBq, iv after 60 mins postinjection

[14] = species on record: Mus musculus; assay: Binding affinity to beta-amyloid plaque in wild type mouse brain after 3 mins by Thioflavin-S fluorescence-based confocal microscopy; type: tissue-based
[15] = target: T1, Amyloid-beta precursor protein (Homo sapiens, UniProt P05067); assay: biochemical
Description: Displacement of [3H]PIB from amyloid beta (1 to 42) aggregates in Alzheimer's disease-human brain homogenate after 3 hrs by gamma counting

[16] = target: T1, Amyloid-beta precursor protein; assay: biochemical; remark: listed apart in the source
Description: Displacement of [125I]TZDM from amyloid beta (1 to 42) aggregates in Alzheimer's disease-human brain homogenate after 3 hrs by gamma counting

[17] = physchem; conditions: octanol/PBS
Description: Octanol-PBS partition coefficient, log P of the compound by gamma counter

[18] = species on record: Mus musculus; assay: Binding affinity to beta-amyloid plaque in APPswe/PS1deltaE9 double transgenic mouse brain after 3 mins by Thioflavin-S fluorescence-based confocal microscopy; type: tissue-based

T1 sequence (P05067 whole entry): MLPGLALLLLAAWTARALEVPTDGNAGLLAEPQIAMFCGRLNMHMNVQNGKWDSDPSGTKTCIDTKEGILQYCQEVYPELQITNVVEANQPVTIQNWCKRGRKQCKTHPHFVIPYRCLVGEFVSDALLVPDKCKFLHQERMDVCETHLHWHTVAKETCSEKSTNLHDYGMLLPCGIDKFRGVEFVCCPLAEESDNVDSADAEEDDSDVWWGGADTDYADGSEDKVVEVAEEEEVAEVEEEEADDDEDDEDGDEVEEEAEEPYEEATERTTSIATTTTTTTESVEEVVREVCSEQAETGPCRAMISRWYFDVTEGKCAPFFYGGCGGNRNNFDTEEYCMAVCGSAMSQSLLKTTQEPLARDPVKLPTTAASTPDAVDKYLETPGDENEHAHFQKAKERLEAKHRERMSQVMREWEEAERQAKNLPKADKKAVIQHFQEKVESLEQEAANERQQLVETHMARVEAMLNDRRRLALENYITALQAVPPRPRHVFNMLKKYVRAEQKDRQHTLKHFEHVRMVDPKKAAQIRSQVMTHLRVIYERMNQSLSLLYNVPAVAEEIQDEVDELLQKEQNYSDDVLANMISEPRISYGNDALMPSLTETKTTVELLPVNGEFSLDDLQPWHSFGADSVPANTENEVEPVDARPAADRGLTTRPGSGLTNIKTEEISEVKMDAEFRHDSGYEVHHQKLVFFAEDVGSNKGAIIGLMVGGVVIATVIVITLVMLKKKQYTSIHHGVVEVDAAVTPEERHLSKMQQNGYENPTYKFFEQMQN

Drug uptake [1] [% ID/g]	Drug uptake [2] [% ID/g]	Drug uptake [3] [% ID/g]	Drug uptake [4] [% ID/g]	Drug uptake [5] [% ID/g]	Drug uptake [6] [% ID/g]	remaining at 2 h, 3.7 MBq [7] [%]	Drug uptake [8] [% ID/g]	Drug uptake [9] [% ID/g]	Drug uptake [10] [% ID/g]	Drug uptake [11] [% ID/g]	Drug uptake [12] [% ID/g]	Drug uptake [13] [% ID/g]	Activity [14]	Ki [15] [nM]	Ki [16] [nM]	logP [17]	Activity [18]	SMILES
1.55	2.01	1.04	4.39	2.03	1.61	90	2.17	4.45	1.16	2.8	4.26	1.02						CN(C)c1ccc(-c2nc3ccc([18F])cc3s2)cc1
													Active	0.2	5.5	3.2	Active	CNc1ccc(-c2nc3ccc(F)cc3s2)cc1
2.08	1.32	1.13	6.62	1.38	0.73	90	1.2	6.24	0.98	1.91	6.3	1.11						CNc1ccc(-c2nc3ccc([18F])cc3s2)cc1
														0.3	5.9	3.6		CN(C)c1ccc(-c2nc3ccc(F)cc3s2)cc1
